{
  "source": "patent US20220142958A1",
  "about": "“MEDICINAL COMPOSITION HAVING EXCELLENT STABILITY” (EA Pharma Co., Ltd., priority 2019, published 2022)",
  "key": {"[1]": {"test": "Example 1B: residual ratio of Compound A1 at 2 concentrations stored at 5° C.", "type": "physicochemical", "method": "According to Table 3 below, Compound A1 was dissolved in each of the buffer solutions at 2 concentrations. Each of these solutions was dispensed into a glass vial and stored at 5° C. After the storage, a residual ratio of Compound A1 was calculated according to a test method described below.\n(§1) Test method: In the solution after the storage, the residual ratio was analyzed according to a normal method using a liquid chromatography apparatus Prominence (manufactured by Shimadzu Corporation) and an ultraviolet absorptiometer (measurement wavelength: 254 nm, Prominence (manufactured by Shimadzu Corporation)). At this time, SUMIPAX ODS (3 mm×150 mm, 5 μm, manufactured by SCAS) was used as a column.\nThe residual ratio (%) of Compound A1 during each storage period at 5° C. was calculated as follows.\nResidual ratio (%) of Compound A1 during each storage period=peak area of Compound A1 in sample solution/sum of peak area of sample solution×100"}, "[2]": {"test": "Example 4A: residual ratio and reaction rate constant after storage at 60° C.", "type": "physicochemical", "details": "for Reaction rate constant at 60° C. / Residual ratio (%): 0.1 mg/mL", "method": "Compound A1 was dissolved in each of the buffer solutions shown in Table 10 so that a concentration was 0.1 mg/mL. Each of these solutions was dispensed into a glass vial and stored at 60° C. After the storage, a residual ratio was calculated according to a test method described below.\nas §1\nThe calculation for obtaining the residual ratio (%) of Compound A1 during each storage period is as follows.\nResidual ratio (%) of Compound A1 during each storage period=peak area of Compound A1 in sample solution/peak area of Compound A1 in standard solution×100\nHere, “Compound A1 in standard solution” refers to a solution obtained by dissolving Compound A1 in each of the buffer solutions shown in Table 10 so that a concentration was 0.1 mg/mL, and then storing the solution at 5° C. It was clear from the results of Example 1 that the solution of Compound A1 was stable when being stored at 5° C., and thus, the solution was used as the standard solution.\nThe reaction rate constant at 60° C. was calculated using the obtained residual ratio."}, "serum iPTH": {"system": "serum iPTH", "test": "PK and PK/PD analysis of P1 (three-compartment model, indirect response model incorporating rebound)", "type": "in vivo, human", "details": "±standard error", "method": "A PK/PD analysis was conducted to estimate the clinically effective dose based on the results from P1. The dose of 2.5 mg seemed to be excessive and thus was eliminated from the analysis. PK (mean plasma concentration) and PD (mean iPTH level normalized by the levels of the placebo group and the 0-hour level) data of the doses of 0.01 mg, 0.1 mg and 1 mg were used. An indirect response model incorporating rebound was used for the PK/PD analysis.\nBased on the results of PK of the three given doses (0.01 mg, 0.1 mg, and 1 mg) in P1, the three given doses were simultaneously analyzed using a three-compartment model to calculate the PK parameters (FIG. 2-5 and Table 16-2).\nUsing the calculated PK parameters as an input function, PK/PD analysis was performed using an indirect response model incorporating rebound (FIG. 2-6) to calculate the EC50 value in healthy adults (FIG. 2-7 and Table 16-3)."}, "[3]": {"system": "bilaterally nephrectomized rats", "test": "Survival of bilaterally nephrectomized rats after single doses", "type": "in vivo, rat", "details": "48 hours after the administration, all administered groups (0.3, 3, 30 mg/kg)", "text": "After quarantine and acclimatization periods of 6 days, fifty-one rats (Crl: CD (SD), male) aged 7 weeks were fed a 100% sucrose diet ad libitum from four days before the surgery. On the day of the surgery, skin incisions were made on the back at the sites of the right and left kidneys under isoflurane anesthesia and the renal capsules were removed to ligate the renal arteries and veins and the ureters using threads before removing the right and left kidneys. A penicillin solution was given upon suturing, and 5 mL of physiological saline was intraperitoneally administered before returning the rats into the breeding cages.\nOn a day after the bilaterally nephrectomy, the given doses were calculated based on the weight of the selected animals on that day. Group 1 was given a medium (physiological saline), Groups 2, 3 and 4 were given the Compound A1 solution (0.3, 3 and 30 mg/mL, respectively), and Groups 5, 6, 7 and 8 (5 rats per group) were given the comparative compound (0.3, 1, 3 and 10 mg/mL, respectively), each given a single dose of 1 ml/kg from the tail vein. Prior to the administration (0 hours), and 24 and 48 hours after the administration, approximately 300 μL of blood was collected without anesthesia from the tail vein using capillary tubes for obtaining the serum. The blood for obtaining the serum was left to stand at room temperature, and centrifuged in a high speed refrigerated microcentrifuge (10,000 rpm, 5 min, 4° C.) within a period of 30 minutes to 2 hours after the blood collection to collect the serum."}},
  "data": [
    {"smiles": "Cc1c(Cl)cc(S(=O)(=O)[O-])cc1NC(=O)NC[C@H](N)C(=O)O.[Na+]", "note": "[Compound A1, sodium 3-{[(2S)-2-amino-2-carboxyethyl]carbamoylamino}-5-chloro-4-methylbenzenesulfonate]", "values": [
      {"measurement": "Residual ratio (%)", "setting": "[1]; 0.1 mg/mL, pH 1.1, 5° C., 23 hours", "result": 100, "unit": "%"},
      {"measurement": "Residual ratio (%)", "setting": "[1]; 0.1 mg/mL, pH 1.1, 5° C., 141 hours", "result": 100, "unit": "%"},
      {"measurement": "Residual ratio (%)", "setting": "[1]; 0.1 mg/mL, pH 1.1, 5° C., 570 hours", "result": 100, "unit": "%"},
      {"measurement": "Residual ratio (%)", "setting": "[1]; 0.1 mg/mL, pH 7.0, 5° C., 23 hours", "result": 100, "unit": "%"},
      {"measurement": "Residual ratio (%)", "setting": "[1]; 0.1 mg/mL, pH 7.0, 5° C., 141 hours", "result": 100, "unit": "%"},
      {"measurement": "Residual ratio (%)", "setting": "[1]; 0.1 mg/mL, pH 7.0, 5° C., 570 hours", "result": 100, "unit": "%"},
      {"measurement": "Residual ratio (%)", "setting": "[1]; 10 mg/mL, pH 1.1, 5° C., 23 hours", "result": 100, "unit": "%"},
      {"measurement": "Residual ratio (%)", "setting": "[1]; 10 mg/mL, pH 1.1, 5° C., 141 hours", "result": 100, "unit": "%"},
      {"measurement": "Residual ratio (%)", "setting": "[1]; 10 mg/mL, pH 1.1, 5° C., 570 hours", "result": 100, "unit": "%"},
      {"measurement": "Residual ratio (%)", "setting": "[1]; 10 mg/mL, pH 7.0, 5° C., 23 hours", "result": 100, "unit": "%"},
      {"measurement": "Residual ratio (%)", "setting": "[1]; 10 mg/mL, pH 7.0, 5° C., 141 hours", "result": 100, "unit": "%"},
      {"measurement": "Residual ratio (%)", "setting": "[1]; 10 mg/mL, pH 7.0, 5° C., 570 hours", "result": 100, "unit": "%"},
      {"measurement": "stability of the formulation", "setting": "[1]; pH of 1.1 and pH of 7.0, 5° C., regardless of the concentration", "result": "stable"},
      {"measurement": "Reaction rate constant at 60° C.", "setting": "[2]; pH 1.1", "result": "6.3 × 10^−4"},
      {"measurement": "Residual ratio (%)", "setting": "[2]; pH 1.1, 60° C., 24 hours", "result": 97.8, "unit": "%"},
      {"measurement": "Residual ratio (%)", "setting": "[2]; pH 1.1, 60° C., 113 hours", "result": 92.7, "unit": "%"},
      {"measurement": "Residual ratio (%)", "setting": "[2]; pH 1.1, 60° C., 161 hours", "result": 90.2, "unit": "%"},
      {"measurement": "Reaction rate constant at 60° C.", "setting": "[2]; pH 2.0", "result": "6.5 × 10^−4"},
      {"measurement": "Residual ratio (%)", "setting": "[2]; pH 2.0, 60° C., 24 hours", "result": 98.1, "unit": "%"},
      {"measurement": "Residual ratio (%)", "setting": "[2]; pH 2.0, 60° C., 113 hours", "result": 92.4, "unit": "%"},
      {"measurement": "Residual ratio (%)", "setting": "[2]; pH 2.0, 60° C., 161 hours", "result": 90.1, "unit": "%"},
      {"measurement": "Reaction rate constant at 60° C.", "setting": "[2]; pH 3.0", "result": "7.5 × 10^−4"},
      {"measurement": "Residual ratio (%)", "setting": "[2]; pH 3.0, 60° C., 24 hours", "result": 98.3, "unit": "%"},
      {"measurement": "Residual ratio (%)", "setting": "[2]; pH 3.0, 60° C., 113 hours", "result": 91.5, "unit": "%"},
      {"measurement": "Residual ratio (%)", "setting": "[2]; pH 3.0, 60° C., 161 hours", "result": 88.9, "unit": "%"},
      {"measurement": "Reaction rate constant at 60° C.", "setting": "[2]; pH 4.0", "result": "7.6 × 10^−4"},
      {"measurement": "Residual ratio (%)", "setting": "[2]; pH 4.0, 60° C., 24 hours", "result": 98.1, "unit": "%"},
      {"measurement": "Residual ratio (%)", "setting": "[2]; pH 4.0, 60° C., 113 hours", "result": 91.5, "unit": "%"},
      {"measurement": "Residual ratio (%)", "setting": "[2]; pH 4.0, 60° C., 161 hours", "result": 88.5, "unit": "%"},
      {"measurement": "Reaction rate constant at 60° C.", "setting": "[2]; pH 5.0", "result": "7.9 × 10^−4"},
      {"measurement": "Residual ratio (%)", "setting": "[2]; pH 5.0, 60° C., 24 hours", "result": 98.0, "unit": "%"},
      {"measurement": "Residual ratio (%)", "setting": "[2]; pH 5.0, 60° C., 113 hours", "result": 91.3, "unit": "%"},
      {"measurement": "Residual ratio (%)", "setting": "[2]; pH 5.0, 60° C., 161 hours", "result": 88.0, "unit": "%"},
      {"measurement": "Reaction rate constant at 60° C.", "setting": "[2]; pH 6.0", "result": "7.8 × 10^−4"},
      {"measurement": "Residual ratio (%)", "setting": "[2]; pH 6.0, 60° C., 24 hours", "result": 98.1, "unit": "%"},
      {"measurement": "Residual ratio (%)", "setting": "[2]; pH 6.0, 60° C., 113 hours", "result": 91.5, "unit": "%"},
      {"measurement": "Residual ratio (%)", "setting": "[2]; pH 6.0, 60° C., 161 hours", "result": 88.3, "unit": "%"},
      {"measurement": "Reaction rate constant at 60° C.", "setting": "[2]; pH 7.0", "result": "8.2 × 10^−4"},
      {"measurement": "Residual ratio (%)", "setting": "[2]; pH 7.0, 60° C., 24 hours", "result": 98.2, "unit": "%"},
      {"measurement": "Residual ratio (%)", "setting": "[2]; pH 7.0, 60° C., 113 hours", "result": 91.0, "unit": "%"},
      {"measurement": "Residual ratio (%)", "setting": "[2]; pH 7.0, 60° C., 161 hours", "result": 87.8, "unit": "%"},
      {"measurement": "change of reaction rate constant at 60° C. when the pH of the formulation was changed", "setting": "[2]; pH 1.1 to 7.0", "result": "not significantly changed"},
      {"measurement": "Emax", "setting": "serum iPTH; healthy adults, indirect response model incorporating rebound", "result": "0.920 ± 0.027", "unit": "ratio"},
      {"measurement": "K12", "setting": "serum iPTH; three-compartment model", "result": "0.658 ± 0.136", "unit": "h⁻¹"},
      {"measurement": "K13", "setting": "serum iPTH; three-compartment model", "result": "4.42 ± 1.80", "unit": "h⁻¹"},
      {"measurement": "K21", "setting": "serum iPTH; three-compartment model", "result": "0.819 ± 0.049", "unit": "h⁻¹"},
      {"measurement": "K31", "setting": "serum iPTH; three-compartment model", "result": "6.89 ± 1.33", "unit": "h⁻¹"},
      {"measurement": "Ke", "setting": "serum iPTH; three-compartment model", "result": "1.28 ± 0.15", "unit": "h⁻¹"},
      {"measurement": "number of rats surviving (of five per group)", "setting": "[3]", "result": "five"}
    ]}
  ]
}
